Data taken from patent US9975900B2, “Substituted imidazo[1,2-α]pyrazines for treating spinal muscular atrophy” (Hoffmann-La Roche Inc., priority 2014, dated 2018).
Structures can show the parent of a compound that is named as a salt.

Experiments:
[1] = system: SMN protein in SMA patient fibroblast cells (GM03813); test: SMN protein assay (HTRF) in cultured cells; assay type: cell-based; conditions: Homo sapiens, SMA Type 1 patient fibroblasts, 48 hours; for EC (1.5-fold): 7-point concentration curve, concentration giving 1.5 times SMN protein vs vehicle, read-out: EC1.5x SMN protein (EC1.5x concentration for SMN protein expression); for maximal fold induction: fold increase relative to vehicle control, read-out: Max. fold increase of SMN protein
Experimental: The SMN HTRF (homogeneous time resolved fluorescence) assay is used to quantify the level of SMN protein in SMA patient fibroblast cells treated with test compounds. Materials used and respective sources are listed below in Table 4.
Cells are thawed and cultured in DMEM-10% FBS for 72 hours. Cells are trypsinized, counted and re-suspended to a concentration of 25,000 cells/mL in DMEM-10% FBS. The cell suspensions are plated at 5,000 cells per well in a 96 well microtiter plate and incubated for 3 to 5 hours. Test compounds are serially diluted 3.16-fold in 100% DMSO to generate a 7-point concentration curve. 1 μL of test compound solution is transferred to cell-containing wells and cells are incubated for 48 hours in a cell culture incubator (37° C., 5% CO2, 100% relative humidity). Triplicate samples are set up for each test compound concentration. After 48 hours, the supernatant is removed from the wells and 25 μL of the RIPA lysis buffer, containing protease inhibitors, is added to the wells and incubated with shaking at room temperature for 1 hour. 25 μL of the diluent is added and then 35 μL of the resulting lysate is transferred to a 384-well plate, where each well contains 5 μL of the antibody solution (1:100 dilution of anti-SMN d2 and anti-SMN cryptate in SMN reconstitution buffer). The plate is centrifuged for 1 minute to bring the solution to the bottom of the wells, then incubated overnight at room temperature. Fluorescence for each well of the plate at 665 nm and 620 nm is measured on an EnVision multilabel plate reader (Perkin-Elmer).
The normalized fluorescence signal is calculated for each sample, Blank and vehicle control well by dividing the signal at 665 nm by the signal at 620 nm. Normalizing the signal accounts for possible fluorescence quenching due to the matrix effect of the lysate. The ΔF value (a measurement of SMN protein abundance as a percent value) for each sample well is calculated by subtracting the normalized average fluorescence for the Blank control wells from the normalized fluorescence for each sample well, then dividing this difference by the normalized average fluorescence for the Blank control wells and multiplying the resulting value by 100. The ΔF value for each sample well represents the SMN protein abundance from test compound-treated samples. The ΔF value for each sample well is divided by the ΔF value for the vehicle control wells to calculate the fold increase in SMN protein abundance relative to the vehicle control. Table 5 provides EC1.5× concentrations for SMN protein expression that was obtained from the 7-point concentration data generated according to the above procedure for particular compounds of the present invention.
Table 6 provides the maximum fold increase of SMN protein that was obtained from the 7-point concentration data generated according to the above procedure for particular compounds of the present invention

[2] = system: full length SMN2 minigene mRNA (HEK293H cells stably transfected with the SMN2-A minigene construct); test: RT-qPCR assay for SMN2 minigene pre-mRNA splicing in cultured cells; assay type: cell-based; conditions: Homo sapiens, HEK293-H, 24 hours, 7-point concentration curve, concentration giving 1.5-fold FL SMN2mini mRNA vs vehicle, read-out: EC1.5x minigene (EC1.5x concentration for production of full length SMN2 minigene mRNA)
Experimental: The reverse transcription-quantitative PCR-based (RT-qPCR) assay is used to quantify the level of the full length SMN2 minigene (referred to herein by the term “FL SMN2mini”) mRNA containing SMN2 exon 7 in a HEK293H cell line stably transfected with said minigene and treated with a test compound. Materials used and respective sources are listed below in Table 1.
The SMN2-A minigene construct was prepared as described in International Patent Application WO2009/151546A1 page 145 paragraph [00400] to page 147 paragraph [00412] (incl. FIG. 1 and FIG. 3 therein).
HEK293H cells stably transfected with the SMN2-A minigene construct (10,000 cells/well) are seeded in 200 μL of cell culture medium (DMEM plus 10% FBS, with 200 μg/mL hygromycin) in 96-well flat-bottom plates and the plate is immediately swirled to ensure proper dispersal of cells and the formation of an even monolayer of cells. Cells are allowed to attach for 6 hours. Test compounds are serially diluted 3.16-fold in 100% DMSO to generate a 7-point concentration curve. A solution of test compound (1 μL, 200× in DMSO) is added to each cell-containing well and the plate is incubated for 24 hours in a cell culture incubator (37° C., 5% CO2, 100% relative humidity). 2 replicates are prepared for each test compound concentration. The cells are then lysed in the Cells-To-Ct lysis buffer and the lysate is stored at −80° C.
Full length SMN2-A minigene and GAPDH mRNA are quantified using the primers and probes referenced in Table 2. Primer SMN Forward A (SEQ ID NO.1) hybridizes to a nucleotide sequence in exon 7 (nucleotide 22 to nucleotide 40), primer SMN Reverse A (SEQ ID NO.2) hybridizes to a nucleotide sequence in the coding sequence of Firefly luciferase, SMN Probe A (SEQ ID NO.3) hybridizes to a nucleotide sequence in exon 7 (nucleotide 50 to nucleotide 54) and exon 8 (nucleotide 1 to nucleotide 21). The combination of these three oligonucleotides detects only SMN1 or SMN2 minigenes (RT-qPCR) and will not detect endogenous SMN1 or SMN2 genes.
The SMN forward and reverse primers are used at final concentrations of 0.4 μM. The SMN probe is used at a final concentration of 0.15 μM. The GAPDH primers are used at final concentrations of 0.2 μM and the probe at 0.15 μM.
The SMN2-minigene GAPDH mix (15 μL total volume) is prepared by combining 7.5 of 2×RT-PCR buffer, 0.4 μL of 25×RT-PCR enzyme mix, 0.75 μL of 20× GAPDH primer-probe mix, […] of water, 2 μL of 10-fold diluted cell lysate, 0.06 μL of 100 μM SMN forward primer, 0.06 μL of 100 μM SMN reverse primer, and 0.225 μL of 100 μM SMN probe.
PCR is carried out at the following temperatures for the indicated time: Step 1: 48° C. (15 min); Step 2: 95° C. (10 min); Step 3: 95° C. (15 sec); Step 4: 60° C. (1 min); then repeat Steps 3 and 4 for a total of 40 cycles.
Each reaction mixture contains both SMN2-A minigene and GAPDH primers/probe sets (multiplex design), allowing simultaneous measurement of the levels of two transcripts.
The increase in the abundance of the FL SMN2mini mRNA relative to that in cells treated with vehicle control is determined from real-time PCR data using a modified ΔΔCt method (as described in Livak and Schmittgen, Methods, 2001, 25:402-8). The amplification efficiency E is calculated from the slope of the amplification curve for FL SMN2mini and GAPDH individually. The abundance of FL SMN2mini and GAPDH mRNA are then calculated as (1+E)^−Ct, where Ct is the threshold value for each amplicon. The abundance of FL SMN2mini mRNA is normalized to GAPDH mRNA abundance. The normalized FL SMN2mini mRNA abundance from test compound-treated samples is then divided by normalized FL SMN2mini mRNA abundance from vehicle-treated cells to determine the level of FL SMN2mini mRNA relative to vehicle control. […]

Structure (SMILES)	EC (1.5-fold) [1] [µM]	maximal fold induction [1]	EC (1.5-fold) [2] [µM]
Cc1cn2cc(NC(=O)c3ccc(N4CCN[C@H](C)C4)cc3F)nc(C(F)F)c2n1 [Example 44, N-[8-(difluoromethyl)-2-methylimidazo[1,2-a]pyrazin-6-yl]-2-fluoro-4-[(3R)-3-methylpiperazin-1-yl]benzamide]	0.035	1.79	0.0095
CCOc1cc(N2CCN[C@H](C)C2)ccc1C(=O)Nc1cn2cc(C)nc2c(C)n1 [Example 15, N-(2,8-dimethylimidazo[1,2-a]pyrazin-6-yl)-2-ethoxy-4-[(3R)-3-methylpiperazin-1-yl]benzamide]	0.303	1.72	0.038
COc1cc(N2CC[C@@H](N3CCCC3)C2)ccc1C(=O)Nc1cn2cc(C)nc2cn1 [Example 39, 2-methoxy-N-(2-methylimidazo[1,2-a]pyrazin-6-yl)-4-[(3R)-3-pyrrolidin-1-ylpyrrolidin-1-yl]benzamide]	0.379	1.75	0.118
Cc1cn2cc(NC(=O)c3ccc(N4CCN[C@H](C)C4)cc3F)ncc2n1 [Example 25, 2-fluoro-N-(2-methylimidazo[1,2-a]pyrazin-6-yl)-4-[(3R)-3-methylpiperazin-1-yl]benzamide hydrochloride]	0.123	1.88	0.0146
Cc1cn2cc(NC(=O)c3c(F)cc(N4CCN5CCC[C@H]5C4)cc3F)nc(C)c2n1 [Example 18, 4-[(8aS)-3,4,6,7,8,8a-hexahydro-1H-pyrrolo[1,2-a]pyrazin-2-yl]-N-(2,8-dimethylimidazo[1,2-a]pyrazin-6-yl)-2,6-difluorobenzamide]	0.117	1.75	0.0234
COc1nc(N2CCNCC2)ccc1C(=O)Nc1cn2cc(C)nc2cn1 [Example 47, 2-methoxy-N-(2-methylimidazo[1,2-a]pyrazin-6-yl)-6-piperazin-1-ylpyridine-3-carboxamide hydrochlorid]	0.551	1.64	0.129
CCOc1cc(N2CCN3CCC[C@@H]3C2)ccc1C(=O)Nc1cn2cc(C)nc2cn1 [Example 6, 4-[(8aR)-3,4,6,7,8,8a-hexahydro-1H-pyrrolo[1,2-a]pyrazin-2-yl]-2-ethoxy-N-(2-methylimidazo[1,2-a]pyrazin-6-yl)benzamide]	0.428	1.71	0.101
Cc1cn2cc(NC(=O)c3ccc(N4CC[C@@H](N5CCCC5)C4)cc3F)ncc2n1 [Example 33, 2-fluoro-N-(2-methylimidazo[1,2-a]pyrazin-6-yl)-4-[(3R)-3-pyrrolidin-1-ylpyrrolidin-1-yl]benzamide]	0.122	1.78	0.0222
Cc1cn2cc(NC(=O)c3ccc(N4CCC(N5CCCC5)CC4)cc3F)nc(C)c2n1 [Example 48, N-(2,8-dimethylimidazo[1,2-a]pyrazin-6-yl)-2-fluoro-4-(4-pyrrolidin-1-ylpiperidin-1-yl)benzamide]	0.23	1.65	0.0266
Cc1cn2cc(NC(=O)c3c(F)cc(N4CCN[C@H](C)C4)cc3F)nc(C)c2n1 [Example 14, N-(2,8-dimethylimidazo[1,2-a]pyrazin-6-yl)-2,6-difluoro-4-[(3R)-3-methylpiperazin-1-yl]benzamide]	0.124	1.61	0.0097
CCOc1cc(N2CCN[C@H](C)C2)ccc1C(=O)Nc1cn2cc(C)nc2cn1 [Example 5, 2-ethoxy-N-(2-methylimidazo[1,2-a]pyrazin-6-yl)-4-[(3R)-3-methylpiperazin-1-yl]benzamide]	0.185	1.9	0.041
Cc1cn2cc(NC(=O)c3ccc(N4CCN5CCC[C@H]5C4)cc3F)ncc2n1 [Example 8, 4-[(8aS)-3,4,6,7,8,8a-hexahydro-1H-pyrrolo[1,2-a]pyrazin-2-yl]-2-fluoro-N-(2-methylimidazo[1,2-a]pyrazin-6-yl)benzamide]	0.351	1.77	0.0407
CC[C@@H]1CN(c2ccc(C(=O)Nc3cn4cc(C)nc4cn3)c(F)c2)CCN1 [Example 32, 4-[(3R)-3-ethylpiperazin-1-yl]-2-fluoro-N-(2-methylimidazo[1,2-a]pyrazin-6-yl)benzamide hydrochloride]	0.126	1.81	0.0268
COc1cc(N2CCNC3(CC3)C2)ccc1C(=O)Nc1cn2cc(C)nc2cn1 [Example 34, 4-(4,7-diazaspiro[2.5]octan-7-yl)-2-methoxy-N-(2-methylimidazo[1,2-a]pyrazin-6-yl)benzamide]	1.25	1.69	0.214
Cc1cn2cc(NC(=O)c3ccc(N4C[C@@H](C)N[C@@H](C)C4)cc3F)nc(C)c2n1 [Example 19, N-(2,8-dimethylimidazo[1,2-a]pyrazin-6-yl)-4-[(3R,5S)-3,5-dimethylpiperazin-1-yl]-2-fluorobenzamide]	0.0274	1.71	0.003
